Measurements reported in paper PMC7132281 (Proceedings of the National Academy of Sciences of the …, 2020).

Biological target: T1, AtaC (Vnz_27310) (Streptomyces venezuelae, UniProt F2R7Z6, D269N)
T1 sequence (F2R7Z6 1-401 D269N): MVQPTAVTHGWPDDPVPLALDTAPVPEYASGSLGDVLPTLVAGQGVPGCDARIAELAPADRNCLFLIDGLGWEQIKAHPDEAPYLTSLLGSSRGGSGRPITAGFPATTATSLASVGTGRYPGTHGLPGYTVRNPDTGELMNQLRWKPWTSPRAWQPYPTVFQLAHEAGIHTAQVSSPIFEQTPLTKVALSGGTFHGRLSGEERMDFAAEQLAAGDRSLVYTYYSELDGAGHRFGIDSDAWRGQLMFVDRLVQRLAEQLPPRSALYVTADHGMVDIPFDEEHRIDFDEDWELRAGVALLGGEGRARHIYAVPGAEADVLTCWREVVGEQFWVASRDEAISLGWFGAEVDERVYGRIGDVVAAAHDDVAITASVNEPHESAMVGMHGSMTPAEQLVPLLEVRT
Assay: ITC
Assay type: binding

## Nc1ncnc2c1ncn2[C@@H]1O[C@@H]2COP(=O)(O)O[C@H]3[C@@H](O)[C@H](n4cnc5c(N)ncnc54)O[C@@H]3COP(=O)(O)O[C@H]2[C@H]1O [c-di-AMP]
  Kd: 949 ± 360 nM
